Test results: PubChem BioAssay (NCI)
Where “and” joins values, the source holds several entries; their conditions need not be identical. Identical values can stand only once.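 A five-concentration, 48-hour dose response in 96-well plates underlies each endpoint, interpolated linearly between surrounding concentrations. Abbreviation: GI50, concentration required for 50% inhibition of growth. TGI: concentration producing complete growth inhibition.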

Experiments:
Experiment in all cases: NCI-60 cell line screen, 48 h
[1] = test system: SK-MEL-5 melanoma
[2] = test system: COLO 205 colon
[3] = test system: U251 CNS
[4] = test system: KM12 colon
[5] = test system: HS 578T breast
[6] = test system: UACC-62 melanoma
[7] = test system: MALME-3M melanoma
[8] = test system: NCI-H460 lung
[9] = test system: A549 NSCLC
[10] = test system: HCT-116 colon

| SMILES | TGI [1] | TGI [2] | TGI [3] | TGI [4] | TGI [5] | TGI [6] | TGI [7] | TGI [8] | TGI [9] | TGI [10] | GI50 [1] | GI50 [2] | GI50 [3] | GI50 [4] | GI50 [5] | GI50 [6] | GI50 [7] | GI50 [8] | GI50 [9] | GI50 [10] |
| --- | --- | --- | --- | --- | --- | --- | --- | --- | --- | --- | --- | --- | --- | --- | --- | --- | --- | --- | --- | --- |
| COc1ccc2c(c1)C(=O)CC(C(N)=O)C2 (stereo unspecified) | > 100 µM | > 100 µM | > 100 µM | > 100 µM | > 100 µM | > 100 µM | > 100 µM | > 100 µM | > 100 µM | > 100 µM | – | – | – | – | – | – | – | – | – | – |
| N/C(=N/O)NOCCC(N)C(=O)O (stereo unspecified) | > 100 µM | > 100 µM | > 100 µM | > 100 µM | > 100 µM | > 100 µM | > 100 µM | > 100 µM | > 100 µM | > 100 µM | > 100 µM | > 100 µM | > 100 µM | > 100 µM | > 100 µM | > 100 µM | > 100 µM | > 100 µM | > 100 µM | > 100 µM |
| Cc1ccccc1N=C(c1ccccc1)C1C(=O)c2ccccc2C1=O | 13.3 µM | 38.5 µM | > 100 µM | 30.8 µM | 95.3 µM | 30.7 µM | 6.66 µM | 38 µM | > 100 µM | 16.2 µM | 2.41 µM | 13.8 µM | 24.6 µM | 10.7 µM | 18.3 µM | 11.6 µM | 0.562 µM | 6.91 µM | 12.3 µM | 2.34 µM |
| C[C@H]1O[C@@H](O[C@H]2[C@@H](O)C[C@H](O[C@H]3[C@@H](O)C[C@H](O[C@H]4CC[C@]5(C)C6CC[C@]7(C)[C@@H](C8=CC(=O)OC8)CC[C@]7(O)C6CC[C@@H]5C4)O[C@@H]3C)O[C@@H]2C)C[C@H](O)[C@@H]1O (stereo partly specified) | 0.0493 µM | 0.102 µM | 0.0676 µM | 0.103 µM | 1.57 µM | 0.075 µM | 0.0783 µM | 0.0231 µM | 0.0155 µM | 0.0494 µM | 0.0156 µM | 0.0309 µM | 0.0186 µM | 0.0247 µM | 0.013 µM | 0.0192 µM | 0.019 µM | 0.00973 µM | 0.00776 µM | – |
| COc1ccc(/C=C2\CCC(C)(CN(C)C)C2=O)cc1Br (stereo unspecified) | 28.3 µM | 34.4 µM | 45.1 µM | 28.3 µM | 85.4 µM | 20 µM | 61.9 µM | > 57.2 µM | > 100 µM | 32.1 µM | – | – | – | – | – | – | – | – | – | – |
| CNC(=O)c1cc(Oc2ccc(NC(=O)Nc3ccc(Cl)c(C(F)(F)F)c3)cc2)ccn1 | 3.14 µM and 2.97 µM and 3.25 µM | 8.46 µM and 7.66 µM and 6.26 µM | > 10 µM and 5.82 µM and 5.94 µM | > 10 µM and 8.07 µM and 6.97 µM | > 10 µM and 8.47 µM and 16.4 µM | 8.52 µM and 5.23 µM and 4.49 µM | > 10 µM and 6.71 µM and 11 µM | > 10 µM and 10.2 µM and 7.09 µM | > 10 µM and 11.5 µM and 13.6 µM | > 10 µM and 4.21 µM and 7.48 µM | 1.43 µM and 1.61 µM and 1.57 µM | 2.57 µM and 2.9 µM and 2.33 µM | 2.84 µM and 2.05 µM and 2.14 µM | 2.42 µM and 1.86 µM and 1.8 µM | 2.96 µM and 2.33 µM and 2.59 µM | 2.4 µM and 1.96 µM and 1.7 µM | 2.9 µM and 2.08 µM and 2.15 µM | 3.17 µM and 2.88 µM and 2.44 µM | 3.03 µM and 2.57 µM and 2.92 µM | 1.74 µM and 1.5 µM and 1.9 µM |
| Cc1cccc(Nc2ncc(-c3ccccc3)o2)c1 | > 25 µM | > 25 µM | > 25 µM | > 25 µM | > 25 µM | > 25 µM | > 25 µM | > 25 µM | > 25 µM | > 25 µM | > 25 µM | > 25 µM | > 25 µM | 8.04 µM | > 7 µM | > 25 µM | > 25 µM | > 25 µM | > 25 µM | > 25 µM |
| Nc1nc(N)c2c(n1)NC(c1ccc(Cl)cc1)C1CCc3ccccc3C1=N2 (stereo unspecified) | 2.02 µM | 9.05 µM | 16.3 µM | 20.8 µM | 50.3 µM | 18.3 µM | 22.8 µM | 12.9 µM | 25 µM | 14.9 µM | 0.497 µM | 2.78 µM | 3.81 µM | 8.48 µM | 15 µM | 3.66 µM | 8.48 µM | 3.77 µM | 11.8 µM | 3.72 µM |
| Nc1[nH]c(=S)[nH]c(=O)c1N=Nc1c(Br)cc(S(N)(=O)=O)cc1Br | > 100 µM | > 100 µM | > 100 µM | > 100 µM | > 100 µM | > 100 µM | > 100 µM | > 100 µM | > 100 µM | > 100 µM | – | – | – | – | – | – | – | – | – | – |
| Cc1cc(C2CC(O)C(CO)O2)c(Br)cc1Br (stereo unspecified) | > 100 µM | > 100 µM | > 100 µM | > 100 µM | > 100 µM | > 100 µM | > 100 µM | > 100 µM | > 100 µM | > 100 µM | > 100 µM | > 100 µM | > 100 µM | > 100 µM | 49.9 µM | 49.7 µM | > 100 µM | > 100 µM | > 100 µM | > 100 µM |
| COc1ccc(CC2OC3(CCCCC3)CC3CCCCN32)cc1 (stereo unspecified) | > 100 µM | > 100 µM | > 100 µM | > 100 µM | > 100 µM | > 100 µM | > 100 µM | > 100 µM | > 100 µM | > 100 µM | – | – | – | – | – | – | – | – | – | – |
| O=C(C#Cc1ccccc1)N1CCCCC1 | > 100 µM | > 100 µM | > 100 µM | > 100 µM | > 100 µM | > 100 µM | > 100 µM | > 100 µM | > 100 µM | 67.5 µM | – | – | – | – | – | – | – | – | – | – |
| CC1NCCC(CC(=O)O)C1CC(=O)O (stereo unspecified) | > 100 µM | > 100 µM | > 100 µM | > 100 µM | > 100 µM | > 100 µM | > 100 µM | > 100 µM | > 100 µM | > 100 µM | – | – | – | – | – | – | – | – | – | – |
| O=C(Nc1n[nH]c2cc(-c3ccc(F)cc3)ccc12)C1CC1 | > 18.1 µM | > 18.8 µM | > 25 µM | > 25 µM | > 25 µM | > 25 µM | > 25 µM | > 25 µM | > 25 µM | > 25 µM | 5.56 µM | 8.12 µM | 10.2 µM | 4.11 µM | 10.7 µM | 12.6 µM | 9.79 µM | 7.47 µM | 10.5 µM | 8.89 µM |
| O=C(Nc1c(Cl)cccc1Cl)Oc1cccc2cccnc12 | 12.3 µM | > 100 µM | – | 70.4 µM | 66.1 µM | 10 µM | 81 µM | 20.2 µM | 40.2 µM | > 100 µM | 3.39 µM | 35.2 µM | – | 4.69 µM | 10.9 µM | 3.04 µM | 6.19 µM | 3.46 µM | 4.47 µM | 3.69 µM |
| COC(=O)C1(N2CCOCC2)CCC([C@@H](c2ccccc2)C(C)[N+](=O)[O-])C1 (stereo partly specified) | > 100 µM | > 100 µM | > 100 µM | > 100 µM | > 100 µM | > 100 µM | > 100 µM | > 100 µM | > 100 µM | – | – | – | – | – | – | – | – | – | – | – |
